From ChEMBL document CHEMBL4049382, “4-Hydroxyphenylpyruvate Dioxygenase and Its Inhibition in Plants and Animals: Small Molecules as Herbicides and Agents for the Treatment of Human Inherited Diseases” (J Med Chem, 2017)

Experiments:
[1] = tested on: Plasmodium falciparum; assay: Antiparasitic activity against chloroquine-resistant Plasmodium falciparum; assay type: functional
[2] = tested on: Plasmodium falciparum; assay: Antiparasitic activity against chloroquine-sensitive Plasmodium falciparum; assay type: functional
[3] = species on record: Homo sapiens; assay: Inhibition of TAT in human Fibroblasts assessed as reduction in tyrosine level at 10 uM after 72 hrs by LC-MS/MS analysis relative to control
[4] = Half life in human plasma at 1 mg/kg administered as solution; assay type: ADME, organism-based
[5] = tested on: Homo sapiens; assay: In vivo inhibition of HPPD in human assessed as blood tyrosine levels at 4 mg/kg measured up to 120 hrs; assay type: functional
[6] = Half life in human plasma at 1 mg/kg administered as capsule; assay type: ADME, organism-based; conditions: po
[7] = biological target: T1, 4-hydroxyphenylpyruvate dioxygenase (Arabidopsis thaliana, UniProt P93836); assay: Inhibition of Arabidopsis thaliana HPPD expressed in Escherichia coli BL21(DE3) using HPPA as substrate after 10 mins by UV-Vis spectrometric analysis
T1 sequence (P93836 whole entry): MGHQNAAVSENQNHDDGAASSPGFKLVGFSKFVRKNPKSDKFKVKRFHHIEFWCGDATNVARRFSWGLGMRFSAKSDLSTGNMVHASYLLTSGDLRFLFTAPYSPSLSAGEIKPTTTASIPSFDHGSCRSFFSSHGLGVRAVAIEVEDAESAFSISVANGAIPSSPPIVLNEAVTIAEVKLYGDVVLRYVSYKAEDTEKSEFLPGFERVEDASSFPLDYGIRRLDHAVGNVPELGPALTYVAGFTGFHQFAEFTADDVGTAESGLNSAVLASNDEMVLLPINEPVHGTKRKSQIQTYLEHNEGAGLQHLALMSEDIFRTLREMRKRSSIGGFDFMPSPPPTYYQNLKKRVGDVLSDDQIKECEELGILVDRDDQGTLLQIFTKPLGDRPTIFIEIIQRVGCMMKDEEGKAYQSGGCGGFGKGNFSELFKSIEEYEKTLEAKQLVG

[8] = biological target: T1, 4-hydroxyphenylpyruvate dioxygenase; assay: Inhibition of Arabidopsis thaliana HPPD expressed in Escherichia coli JM109 using HPPA as substrate after 10 mins
[9] = biological target: T1, 4-hydroxyphenylpyruvate dioxygenase; assay: Inhibition of Arabidopsis thaliana HPPD expressed in Escherichia coli JM105 using 4-HPP as substrate preincubated for 15 mins followed by substrate addition measured after 15 mins by HPLC analysis
[10] = tested on: Fibroblast; assay: Cytotoxicity against human Fibroblast assessed as reduction in cell viability after 24 to 144 hrs by MTT assay
[11] = biological target: T1, 4-hydroxyphenylpyruvate dioxygenase; assay: Inhibition of Arabidopsis thaliana HPPD expressed in Escherichia coli JM105 using HPPA as substrate after preincubated for 15 min followed by substrate addition by HPLC analysis
[12] = biological target: T2, 4-hydroxyphenylpyruvate dioxygenase (Sus scrofa, UniProt Q02110); assay: Inhibition of pig liver HPPD using 4-hydroxyphenylpyruvic acid as substrate after 15 mins by spectrophotometric analysis
T2 sequence (Q02110 whole entry): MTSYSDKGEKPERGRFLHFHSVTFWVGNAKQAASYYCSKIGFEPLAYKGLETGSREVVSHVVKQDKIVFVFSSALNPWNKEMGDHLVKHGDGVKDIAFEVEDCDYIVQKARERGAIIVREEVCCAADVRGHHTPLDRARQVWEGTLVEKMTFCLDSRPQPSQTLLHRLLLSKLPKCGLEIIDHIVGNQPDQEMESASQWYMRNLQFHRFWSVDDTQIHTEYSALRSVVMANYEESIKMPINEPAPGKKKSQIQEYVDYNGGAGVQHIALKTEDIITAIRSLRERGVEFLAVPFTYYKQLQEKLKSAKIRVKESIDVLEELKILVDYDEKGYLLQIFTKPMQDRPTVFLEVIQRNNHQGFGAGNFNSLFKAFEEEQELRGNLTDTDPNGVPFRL

[13] = tested on: Rattus norvegicus; assay: In vivo inhibition of HGD activity in rat assessed as micoL of O2 consumed in liver cytosol at 5 to 100 mg/kg/day measured after 90 days relative to control; assay type: functional
[14] = tested on: Rattus norvegicus; assay: In vivo inhibition of TAT activity in rat assessed as 4-hydroxyphenylpyruvate formed in liver cytosol at 50 to 100 mg/kg/day measured after 90 days relative to control; assay type: functional
[15] = tested on: Rattus norvegicus; assay: In vivo inhibition of HPPD activity in rat assessed as micoL of O2 consumed in liver cytosol at 0.1 to 5 mg/kg/day measured after 90 days (reference value: 91%); assay type: functional
[16] = biological target: T2, 4-hydroxyphenylpyruvate dioxygenase; assay: Inhibition of pig liver HPPD using HPP as substrate after 15 mins
[17] = species on record: Homo sapiens; assay: Inhibition of TAT in human Fibroblasts assessed as reduction in tyrosine level at 0.1 uM after 72 hrs by LC-MS/MS analysis relative to control
[18] = biological target: T3, 4-hydroxyphenylpyruvate dioxygenase (Arabidopsis thaliana) (UniProt P93836); assay: Inhibition of Arabidopsis thaliana HPPD
T3 sequence (whole entry): T1 sequence (P93836 whole entry)

[19] = species on record: Rattus norvegicus
Description: In vivo inhibition of HPPD in rat assessed dissociation half life for enzyme-compound complex in plasma

[20] = biological target: 4-hydroxyphenylpyruvate dioxygenase (Rattus norvegicus) (UniProt P32755); conditions: Wistar, 50 nM
Chain of 4-hydroxyphenylpyruvate dioxygenase (Rattus norvegicus) (P32755 whole entry): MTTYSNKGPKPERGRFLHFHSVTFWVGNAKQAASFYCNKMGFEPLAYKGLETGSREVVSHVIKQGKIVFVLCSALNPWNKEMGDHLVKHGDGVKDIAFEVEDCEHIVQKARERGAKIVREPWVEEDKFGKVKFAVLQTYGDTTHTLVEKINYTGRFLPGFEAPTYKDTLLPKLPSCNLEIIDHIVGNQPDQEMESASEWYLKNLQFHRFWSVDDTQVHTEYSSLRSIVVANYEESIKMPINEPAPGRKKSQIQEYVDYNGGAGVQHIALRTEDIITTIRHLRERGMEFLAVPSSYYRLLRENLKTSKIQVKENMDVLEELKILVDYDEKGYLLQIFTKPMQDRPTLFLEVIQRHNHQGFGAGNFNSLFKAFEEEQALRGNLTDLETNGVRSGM
Description: Inhibition of Wistar rat liver HPPD using 4-Hydroxyphenylpyruvate as substrate assessed as reduction in oxygen consumption at 50 nM preincubated for 3 mins followed by substrate addition measured after 30 secs

[21] = tested on: Homo sapiens; assay: In vivo inhibition of HPPD in human assessed dissociation half life for enzyme-compound complex in plasma; assay type: functional, organism-based
[22] = tested on: Rattus norvegicus; assay: In vivo inhibition of Tyr hydroxylase in rat assessed as tyr concentration in plasma by colorimetric assay (reference value: 0.1 mM); assay type: functional
[23] = In vitro half life of rat HPPD complex
[24] = tested on: Homo sapiens; assay: Effect on tyrosine level in plasma in human at 1 mg/kg, po under uncontrolled diet (reference value: 0.076 mM); assay type: ADME, organism-based; conditions: in vivo
[25] = Half life in human plasma at 1 mg/kg
[26] = tested on: Homo sapiens; assay: Effect on tyrosine level in plasma in human at 1 mg/kg, po up to 120 hrs (reference value: 0.076 mM); conditions: in vivo
[27] = biological target: T4, 4-hydroxyphenylpyruvate dioxygenase (Daucus carota, UniProt O23920); assay: Inhibition of carrot HPPD expressed in Escherichia coli JM105 using HPPA as substrate
T4 sequence (O23920 whole entry): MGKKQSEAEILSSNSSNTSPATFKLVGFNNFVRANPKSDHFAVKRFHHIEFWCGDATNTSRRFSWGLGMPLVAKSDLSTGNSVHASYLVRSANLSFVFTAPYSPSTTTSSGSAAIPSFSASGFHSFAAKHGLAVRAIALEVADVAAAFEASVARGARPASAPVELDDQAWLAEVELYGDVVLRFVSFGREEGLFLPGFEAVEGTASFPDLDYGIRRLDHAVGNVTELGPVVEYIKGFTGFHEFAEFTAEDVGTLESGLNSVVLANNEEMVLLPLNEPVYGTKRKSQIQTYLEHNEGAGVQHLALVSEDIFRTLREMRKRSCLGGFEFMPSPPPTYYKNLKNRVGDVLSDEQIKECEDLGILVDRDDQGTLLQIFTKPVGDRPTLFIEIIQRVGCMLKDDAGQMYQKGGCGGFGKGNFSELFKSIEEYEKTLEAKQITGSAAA

[28] = biological target: T5, 4-hydroxyphenylpyruvate dioxygenase (Daucus carota) (UniProt O23920); assay: Inhibition of carrot HPPD expressed in Escherichia coli JM105 assessed as dissociation half life using HPPA as substrate
T5 sequence (whole entry): T4 sequence (O23920 whole entry)

## Cc1c(O)c(C(=O)CCc2ccccc2)c2c(c1O)[C@@H]1C3=C(O[C@]1(C(C)C)O2)C(C)(C)C(=O)C(C)(C)C3=O
[1]
  IC50: 300 nM
[2]
  IC50: 400 nM

## CS(=O)(=O)c1ccc(C(=O)C2C(=O)CCCC2=O)c([N+](=O)[O-])c1 [MESOTRIONE]
[3]
  inhibition: 14%
[4]
  half-life: 60 min
[5]
  Activity: <0.5 mM
[6]
  half-life: 60 min

## Cc1nc2c(C)cccc2cc1C(=O)C1C(=O)CCCC1=O
[7]
  Ki: 7 to 9 nM

## Cc1ccccc1OCC(=O)C1C(=O)CCCC1=O
[8]
  Ki: 31 to 37 nM

## O=C1CCCC(=O)C1C(=O)COc1ccccc1Cl
[8]
  Ki: 31 to 37 nM

## CS(=O)(=O)c1ccc(C(=O)C2C(=O)CCCC2=O)c(Cl)c1COCC(F)(F)F [TEMBOTRIONE]
[8]
  Ki: 13 nM

## Cc1cccc2cc(C(=O)C3C(=O)CCCC3=O)c(C#N)nc12
[7]
  Ki: 7 to 9 nM

## CCCCCCCCCC(=O)C1C(=O)C(C)(C)C(=O)C(C)(C)C1=O
[9]
  IC50: 19 nM

## Cc1cc(C2C(=O)C(C(=O)c3ccc(Cl)cc3)C(=O)CC2(C)C)on1 (stereo unspecified)
[10]
  Activity: > 1 mM

## CCn1c(=O)n(-c2ccccc2C)c(=O)c2cc(C(=O)C3C(=O)CCCC3=O)ccc21
[7]
  Ki: 5 nM

## O=C1C[C@@H](c2ccccc2)Oc2cc(O)cc(O)c21 [PINOCEMBRIN]
[11]
  IC50: 73 µM

## O=C1CCCCC1C(=O)c1ccccc1[N+](=O)[O-] (stereo unspecified)
[12]
  IC50: 700 nM

## COc1nc2c(C)cccc2cc1C(=O)C1C(=O)CCCC1=O
[7]
  Ki: 7 to 9 nM

## O=C1CCCC(OC(=O)C2CC2)=C1Cl
[12]
  IC50: 15 nM

## O=C1CCCC(OC(=O)C2CC2)=C1Br
[12]
  IC50: 28 nM

## O=C1CCCC(=O)C1C(=O)COc1ccc([N+](=O)[O-])cc1
[8]
  Ki: 31 to 37 nM

## CS(=O)(=O)c1ccc(C(=O)C2C(=O)CCCC2=O)c(Cl)c1 [SULCOTRIONE]
[13]
  inhibition (INH): 29 - 46%
[14]
  inhibition (INH): 43 - 175%
[15]
  inhibition (INH): 96%

## O=C(O)C(O)(O)C(F)c1ccccc1 (stereo unspecified)
[16]
  IC50: 10 µM

## CC1(C)CC(=O)C(C(=O)c2ccc([N+](=O)[O-])cc2Cl)C(=O)C1
[10]
  Activity: > 1 mM
[17]
  inhibition: 7%

## Cc1c(C(=O)c2cn[nH]c2O)ccc(S(C)(=O)=O)c1C1=NOCC1
[18]
  INH: 600 nM

## O=C1CCCC(=O)C1C(=O)c1ccc(C(F)(F)F)cc1[N+](=O)[O-] [NITISINONE]
[19]
  T1/2: 63 h
[20]
  inhibition: 50%
[21]
  T1/2: 53 h
[22]
  Activity: >2 mM
[23]
  half-life: 2.62 days
[24]
  Activity: 0.136 mM
[25]
  half-life: 2.21 days
[26]
  Activity: 1.1 mM

## O=C1CCCC(=O)C1Cc1ccccc1[N+](=O)[O-]
[12]
  IC50: 126000 nM

## Cc1c(C(=O)c2cnn(C)c2O)ccc(S(C)(=O)=O)c1C1=NOCC1
[18]
  INH: 23 nM

## CS(=O)(=O)c1cc(C(F)(F)F)ccc1C(=O)C(C#N)C(=O)C1CC1 (stereo unspecified)
[27]
  Kd: 6 nM
[28]
  T1/2: 2 h

## Cc1cccc2cc(C(=O)C3C(=O)CC(C)CC3=O)c(C#N)nc12 (stereo unspecified)
[7]
  Ki: 7 to 9 nM

## O=C1CCCC(=O)C1C(=O)COc1ccc(Cl)cc1
[8]
  Ki: 31 to 37 nM

## CC(C)CC(=O)C1C(=O)C(C)(C)C(=O)C(C)(C)C1=O
[9]
  IC50: 11800 nM

## Cc1nc2c(C)cccc2cc1C(=O)C1C(=O)CC(C)CC1=O (stereo unspecified)
[7]
  Ki: 7 to 9 nM

## CC1(C)C(=O)C(C(=O)CCc2ccccc2)C(=O)C(C)(C)C1=O
[9]
  IC50: 750 nM

## COc1nc2c(C)cccc2cc1C(=O)C1C(=O)CC(C)CC1=O (stereo unspecified)
[7]
  Ki: 7 to 9 nM

## CC(=O)C1=C(O)C=C2Oc3c(C(C)=O)c(O)c(C)c(O)c3[C@@]2(C)C1=O [(+)-USNIC ACID]
[11]
  IC50: 0.07 µM
